From US12281122B1, “PI3K inhibitors” (Cogent Biosciences, Inc., priority 2023, dated 2025)

How the values were obtained:
[1] = test system: SKBR3 (PI3Kα-Wild Type) cell line; experiment: HTRF phospho-AKT(S473) cell assay in SKBR3 cells; type: cell-based, human; conditions: Homo sapiens, SK-BR-3, 2 hours compound incubation, PDGF-BB stimulated
Method in brief: (§1)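 pAKT(S473) in lysates read by HTRF after a 2 h, 37 °C compound exposure (12-point 1:3 series, max 0.5% DMSO). SKBR3 (wild type, top 10 μM) received 70 ng/ml PDGF-BB during the final 15 min; T47D (H1047R, top 5 μM) was unstimulated. IC50 values derived from the dose-response.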

[2] = test system: T47D (PI3Kα-H1047R) cell line; experiment: HTRF phospho-AKT(S473) cell assay in T47D cells; type: cell-based, human; conditions: Homo sapiens, 2 hours compound incubation
Method in brief: as §1

[3] = SKBR3 (PI3Kα-Wild Type) cells, HTRF phospho-AKT(S473)
[4] = T47D (PI3Kα-H1047R) cells, HTRF phospho-AKT(S473)
[5] = HTRF phospho-AKT(S473), SKBR3 (PI3Kα-Wild Type) cells
[6] = HTRF phospho-AKT(S473), T47D (PI3Kα-H1047R) cells
[7] = SKBR3 (PI3Kα-Wild Type) cell line, phospho-AKT(S473) HTRF
[8] = T47D (PI3Kα-H1047R) cell line, phospho-AKT(S473) HTRF

Row | SMILES | IC50 [1, 3] [µM] | IC50 [2, 4] [nM] | IC50 [1, 5] [µM] | IC50 [2, 6] [nM] | other results
1 | C[C@@H](Nc1ccc(Cl)nc1C(=O)NS(C)(=O)=O)c1cc(C2CC2)cc2c(=O)n(C)c(N3CCC(c4nn(C)cc4F)CC3)nc12 [Compound 397, (R)-6-chloro-3-((1-(6-cyclopropyl-2-(4-(4-fluoro-1-methyl-1H-pyrazol-3-yl)piperidin-1-yl)-3-methyl-4-oxo-3,4-dihydroquinazolin-8-yl)ethyl)amino)-N-(methylsulfonyl) picolinamide] | ≥ 5 | 250 to 500 | – | – | –
2 | Cc1cc([C@@H](C)Nc2ccc(Cl)nc2C(=O)NS(C)(=O)=O)c2nc(N3Cc4nn(-c5ccccc5C)c(N)c4C3)n(C)c(=O)c2c1 [Compound 350, (R)-3-((1-(2-(3-amino-2-(o-tolyl)-2,6-dihydropyrrolo[3,4-c]pyrazol-5(4H)-yl)-3,6-dimethyl-4-oxo-3,4-dihydroquinazolin-8-yl)ethyl)amino)-6-chloro-N-(methylsulfonyl) picolinamide] | ≥ 5 | < 250 | – | – | –
3 | Cc1cc([C@@H](C)Nc2ccc(Cl)nc2C(=O)NS(C)(=O)=O)c2nc(N3CCN(c4cc[nH]n4)CC3)n(C)c(=O)c2c1 [Compound 204, (R)-3-((1-(2-(4-(1H-pyrazol-3-yl)piperazin-1-yl)-3,6-dimethyl-4-oxo-3,4-dihydroquinazolin-8-yl)ethyl)amino)-6-chloro-N-(methylsulfonyl) picolinamide] | 1 to 5 | < 250 | – | – | –
4 | Cc1cc([C@@H](C)Nc2ccc(Cl)nc2C(=O)NS(C)(=O)=O)c2nc(-c3ccc4nc(C)cn4c3)n(C)c(=O)c2c1 [Compound 844, (R)-6-chloro-3-((1-(3,6-dimethyl-2-(2-methylimidazo[1,2-a]pyridin-6-yl)-4-oxo-3,4-dihydroquinazolin-8-yl)ethyl)amino)-N-(methylsulfonyl) picolinamide] | – | – | – | – | IC50 [1, 7]: 1 to 5 µM; IC50 [2, 8]: 250 to 500 nM
5 | Cc1cc([C@@H](C)Nc2ccc(Cl)nc2C(=O)NS(=O)(=O)c2ccncc2)c2nc(N3Cc4ccc(F)cc4C3)n(C)c(=O)c2c1 [Compound 170, (R)-6-chloro-3-((1-(2-(5-fluoroisoindolin-2-yl)-3,6-dimethyl-4-oxo-3,4-dihydroquinazolin-8-yl)ethyl)amino)-N-(pyridin-4-ylsulfonyl)picolinamide] | ≥ 5 | < 250 | – | – | –
6 | Cc1cc([C@@H](C)Nc2ccc(Cl)nc2C(=O)NS(C)(=O)=O)c2nc(-c3ccc(Nc4cnn(C)c4)c(F)c3)n(C)c(=O)c2c1 [Compound 806, (R)-6-chloro-3-((1-(2-(3-fluoro-4-((1-methyl-1H-pyrazol-4-yl)amino)phenyl)-3,6-dimethyl-4-oxo-3,4-dihydroquinazolin-8-yl)ethyl)amino)-N-(methylsulfonyl) picolinamide] | – | – | 1 to 5 | < 250 | –
7 | Cc1cc([C@@H](C)Nc2ccc(Cl)nc2C(=O)NS(C)(=O)=O)c2nc(N3C[C@@H]4[C@H](C3)[C@H]4c3nn(C)c(C)c3F)n(C)c(=O)c2c1 [Compound 462, 6-chloro-3-(((R)-1-(2-((1R,5S,6R)-6-(4-fluoro-1,5-dimethyl-1H-pyrazol-3-yl)-3-azabicyclo[3.1.0]hexan-3-yl)-3,6-dimethyl-4-oxo-3,4-dihydroquinazolin-8-yl)ethyl)amino)-N-(methylsulfonyl) picolinamide] | – | – | ≥ 5 | < 250 | –
8 | Cc1cc([C@@H](C)Nc2ccc(Cl)nc2C(=O)NS(C)(=O)=O)c2nc(-c3ccc(OC4CCN(CC(F)(F)F)CC4)nc3)n(C)c(=O)c2c1 [Compound 846, (R)-6-chloro-3-((1-(3,6-dimethyl-4-oxo-2-(6-((1-(2,2,2-trifluoroethyl)piperidin-4-yl)oxy)pyridin-3-yl)-3,4-dihydroquinazolin-8-yl)ethyl)amino)-N-(methylsulfonyl) picolinamide] | – | – | – | – | IC50 [1, 7]: ≥ 5 µM; IC50 [2, 8]: 250 to 500 nM
9 | Cc1cc([C@@H](C)Nc2ccc(Cl)nc2C(=O)NS(C)(=O)=O)c2nc(N3[C@@H]4CC[C@H]3C[C@@H](c3cnc(C)nc3)C4)n(C)c(=O)c2c1 [Compound 299, 6-chloro-3-(((R)-1-(3,6-dimethyl-2-((1R,3R,5S)-3-(2-methylpyrimidin-5-yl)-8-azabicyclo[3.2.1]octan-8-yl)-4-oxo-3,4-dihydroquinazolin-8-yl)ethyl)amino)-N-(methylsulfonyl) picolinamide] | 1 to 5 | < 250 | – | – | –
10 | Cc1cc([C@@H](C)Nc2ccc(Cl)nc2C(=O)NS(C)(=O)=O)c2nc(N3CCC4(CCc5c[nH]nc54)CC3)n(C)c(=O)c2c1 [Compound 682, (R)-6-chloro-3-((1-(2-(4,5-dihydro-2H-spiro [cyclopenta[c]pyrazole-6,4′-piperidin]-1′-yl)-3,6-dimethyl-4-oxo-3,4-dihydroquinazolin-8-yl)ethyl)amino)-N-(methylsulfonyl) picolinamide] | – | – | ≥ 5 | 250 to 500 | –

Second part, led by results:

Row | IC50 [1, 3] [µM] | IC50 [2, 4] [nM] | IC50 [1, 5] [µM] | IC50 [2, 6] [nM] | SMILES | other results
11 | – | – | ≥ 5 | 250 to 500 | Cc1cc([C@@H](C)Nc2ccc(Cl)nc2C(=O)NS(C)(=O)=O)c2nc(N3CC[C@H](Nc4ncc(Cl)cn4)C3)n(C)c(=O)c2c1 [Compound 738, 6-chloro-3-(((R)-1-(2-((S)-3-((5-chloropyrimidin-2-yl)amino)pyrrolidin-1-yl)-3,6-dimethyl-4-oxo-3,4-dihydroquinazolin-8-yl)ethyl)amino)-N-(methylsulfonyl) picolinamide] | –
12 | 1 to 5 | < 250 | – | – | Cc1cc([C@@H](C)Nc2ccc(Cl)nc2C(=O)NS(C)(=O)=O)c2nc(N3CCC[C@H](c4cnn(CC(F)(F)F)c4)C3)n(C)c(=O)c2c1 (relative stereo) [Compound 231, 6-chloro-3-(((R)-1-(3,6-dimethyl-4-oxo-2-((R*)-3-(1-(2,2,2-trifluoroethyl)-1H-pyrazol-4-yl)piperidin-1-yl)-3,4-dihydroquinazolin-8-yl)ethyl)amino)-N-(methylsulfonyl) picolinamide] | –
13 | – | – | 1 to 5 | < 250 | Cc1ccn(C2CCN(c3nc4c([C@@H](C)Nc5ccc(Cl)nc5C(=O)NS(C)(=O)=O)cc(C)cc4c(=O)n3C)CC2)c(=O)c1 [Compound 753, (R)-6-chloro-3-((1-(3,6-dimethyl-2-(4-(4-methyl-2-oxopyridin-1(2H)-yl)piperidin-1-yl)-4-oxo-3,4-dihydroquinazolin-8-yl)ethyl)amino)-N-(methylsulfonyl) picolinamide] | –
14 | 1 to 5 | < 250 | – | – | Cc1cc([C@@H](C)Nc2ccc(Cl)nc2C(=O)NS(C)(=O)=O)c2nc(N3CCC[C@H](c4cc[nH]n4)C3)n(C)c(=O)c2c1 (relative stereo) [Compound 213, 3-(((R)-1-(2-((R*)-3-(1H-pyrazol-3-yl)piperidin-1-yl)-3,6-dimethyl-4-oxo-3,4-dihydroquinazolin-8-yl)ethyl)amino)-6-chloro-N-(methylsulfonyl) picolinamide] | –
15 | – | – | ≥ 5 | 250 to 500 | Cc1cc([C@@H](C)Nc2ccc(Cl)nc2C(=O)NS(C)(=O)=O)c2nc(N3C[C@H]4C[C@@H]3CN4c3cnc(C)cn3)n(C)c(=O)c2c1 [Compound 577, 6-chloro-3-(((R)-1-(3,6-dimethyl-2-((1R,4R)-5-(5-methylpyrazin-2-yl)-2,5-diazabicyclo[2.2.1]heptan-2-yl)-4-oxo-3,4-dihydroquinazolin-8-yl)ethyl)amino)-N-(methylsulfonyl) picolinamide] | –
16 | ≥ 5 | 250 to 500 | – | – | Cc1cc([C@@H](C)Nc2ccc(Cl)nc2C(=O)NS(C)(=O)=O)c2nc(N3CCC[C@@H](c4ccccn4)C3)n(C)c(=O)c2c1 (relative stereo) [Compound 208, 6-chloro-3-(((R)-1-(3,6-dimethyl-4-oxo-2-((R*)-3-(pyridin-2-yl)piperidin-1-yl)-3,4-dihydroquinazolin-8-yl)ethyl)amino)-N-(methylsulfonyl) picolinamide] | –
17 | – | – | ≥ 5 | 500 to 1000 | Cc1cc([C@@H](C)Nc2ccc(Cl)nc2C(=O)NS(C)(=O)=O)c2nc(N3CC[C@H](c4cnc(C)nc4)C3)n(C)c(=O)c2c1 (relative stereo) [Compound 658, 6-chloro-3-(((R)-1-(3,6-dimethyl-2-((R*)-3-(2-methylpyrimidin-5-yl)pyrrolidin-1-yl)-4-oxo-3,4-dihydroquinazolin-8-yl)ethyl)amino)-N-(methylsulfonyl) picolinamide] | –
18 | – | – | 1 to 5 | < 250 | Cc1cnc(C2CCN(c3nc4c([C@@H](C)Nc5ccc(Cl)nc5C(=O)NS(C)(=O)=O)cc(Cl)cc4c(=O)n3C)CC2)cn1 [Compound 442, (R)-6-chloro-3-((1-(6-chloro-3-methyl-2-(4-(5-methylpyrazin-2-yl)piperidin-1-yl)-4-oxo-3,4-dihydroquinazolin-8-yl)ethyl)amino)-N-(methylsulfonyl) picolinamide] | –
19 | – | – | 1 to 5 | 250 to 500 | Cc1cc([C@@H](C)Nc2ccc(Cl)nc2C(=O)NS(C)(=O)=O)c2nc(N3CC[C@@H](Oc4cncnc4)C3)n(C)c(=O)c2c1 [Compound 707, 6-chloro-3-(((R)-1-(3,6-dimethyl-4-oxo-2-((R)-3-(pyrimidin-5-yloxy)pyrrolidin-1-yl)-3,4-dihydroquinazolin-8-yl)ethyl)amino)-N-(methylsulfonyl) picolinamide] | –
20 | 1 to 5 | < 250 | – | – | Cc1cc([C@@H](C)Nc2ccc(Cl)nc2C(=O)NS(C)(=O)=O)c2nc(N3CCC(Oc4ccn(C)n4)CC3)n(C)c(=O)c2c1 [Compound 265, (R)-6-chloro-3-((1-(3,6-dimethyl-2-(4-((1-methyl-1H-pyrazol-3-yl)oxy)piperidin-1-yl)-4-oxo-3,4-dihydroquinazolin-8-yl)ethyl)amino)-N-(methylsulfonyl) picolinamide] | –
